The source of these data is PMC4550478, “Metronidazole-triazole conjugates: Activity against Clostridium difficile and parasites” (European Journal of Medicinal Chemistry, 2015).

Each structure is given as a SMILES string. Values after ≈ are worked out from the molar mass of the structure shown. Like-named read-outs stand apart in the source and are kept apart here.

Test [1] relates to C. difficile NAP1/027 ATCC BAA-1803. Description: MIC broth microdilution, C. difficile NAP1/027 ATCC BAA-1803. It counts as cell-based, Clostridium difficile. The following applies: for MIC: Clostridioides difficile. The method, then:
All compounds were tested for activity against a set of anaerobic C. difficile bacteria (630 ATCC BAA-1382, NAP1/027 M7404, NAP1/027 ATCC BAA-1803, VPI10463 ATCC 43255, CD26A54_S and CD26A54_R) and representative ESKAPE pathogens S. aureus (MRSA ATCC 43300), E. coli (ATCC 25922), K. pneumoniae (ATCC 700603), A. baumannii (ATCC 19606) and P. aeruginosa (ATCC 27853) using a standard broth microdilution assay. Selected compounds were tested for activity against H. pylori strains (26695, and clinical isolates MtzS 13/25, MtzR 98/285 and MtzR 13/61) using agar plate dilution, and for antimicrobial activity against […] Gram-positive bacterial strains: Enterococcus faecalis (VanA clinical isolate), Enterococcus faecium (MDR VanA ATCC 51559), Streptococcus pneumoniae (MDR ATCC 700677), S. aureus (MRSA ATCC 43300, MRSA clinical isolate, MRSA/DRSA clinical isolate, GISA NARSA NRS 1, GISA NARSA NRS 17, VRSA NARSA VRS1, VRSA NARSA VRS4 and VRSA NARSA VRS10) using broth microdilution. C. difficile strains were grown at 37 °C in a COY anaerobic chamber (5% H2, 10% CO2, 85% N2). H. pylori strains were grown at 37 °C under a microaerobic atmosphere (5% O2, 10% CO2). All facultative anaerobic bacteria were grown at 37 °C with normal atmospheric oxygen levels. All experiments were performed in duplicate with metronidazole, vancomycin, linezolid or colistin as positive controls for relevant strains (see Table 1). Positive growth control of bacteria and DMSO as well as a negative control of only media were included for every plate. Full assay details are provided in the supplementary information.
C. difficile ATCC BAA-1382, ATCC BAA-1803, ATCC 43255 and M7404 heat shocked spore stocks (10 µL) were transferred into the anaerobic chamber and 10 µL streaked onto pre-reduced (at least 2.5 hr in anaerobic chamber) BHIS agar plates supplemented with 0.1% w/v sodium taurocholate (BHIS(TA)). Plates were incubated for 24 hours prior to assay to give colonies of size 1-3mm diameter with characteristic uneven borders.
The minimum inhibition concentration was determined according to the CLSI Methods with modifications in broth and inoculum for C. difficile according to Babakhani et al.^7,8 Briefly, compounds were prepared to 20X final concentration in 100% water, 60% DMSO and 40% water or 60% DMSO and 40% media. The compounds along with standard antibiotics were serially diluted two-fold across the wells of 96-well non-binding surface plates (Non binding surface, Corning). The plates were placed in the anaerobic chamber overnight to reduce. C. difficile bacteria from BHIS(TA) agar plates were cultured anaerobically in BHIS at 37 °C overnight. A sample of culture was then diluted 40-fold in BHIS broth and incubated at 37 °C for approximately 4.5 hrs. The resultant mid-log phase culture (OD600= 0.5-0.6) was diluted to the final concentration of ~1×10^6 CFU/mL, then 50 µL was added to each well of the compound-containing 96-well plates. This gave final cell concentration of 5×10^5 CFU/mL, final volume 100 µL and 3% maximum DMSO concentration. Compound concentration was typically from 64 to 0.03 µg/mL. An antibiotic standard was included on each 96 well plate as well as a positive growth control (no compound) and sterility control (no bacteria). […] MICs were the lowest concentration showing no visible growth.
For orientation: Broth dilution looks for growth in wells or tubes with falling amounts of substance.

Test [2] has as its system G. lamblia BRIS/83/HEPU/106 (106). Also on record: method as in earlier work. The following applies: MtzS, crude Mtz-triazoles (>85% purity), ref 15 (Miyamoto et al.); read-out: EC50 G. lamblia 106, Lit.; cited from earlier work.
The subject of test [3] is G. lamblia BRIS/87/HEPU/713 (713). Also on record: method as in earlier work. Conditions: MtzS, crude Mtz-triazoles (>85% purity), ref 15 (Miyamoto et al.); read-out: EC50 G. lamblia 713, Lit.; cited from earlier work.
The subject of test [4] is G. lamblia 713-M3 (713M). Also on record: method as in earlier work. Conditions: MtzR, crude Mtz-triazoles (>85% purity), ref 15 (Miyamoto et al.); read-out: EC50 G. lamblia 713M, Lit.; cited from earlier work.
The mark [5] stands for this setting: ATCC 43255 / ATCC BAA-1803, NAP1/027 (footnote c: ATCC 43255), MtzS, 24 h, median of at least n = 4, read-out: MIC C. difficile NAP1/027 (footnote c).
[6] abbreviates: ATCCBAA1803, 24 hr incubation, read-out: MIC C. difficile NAP1/027 ATCC BAA-1803 24 hr.
[7] abbreviates: ATCCBAA1803, 48 hr incubation, read-out: MIC C. difficile NAP1/027 ATCC BAA-1803 48 hr.

Take `Cc1ncc([N+](=O)[O-])n1CCN=[N+]=[N-]` [Compound 3, 1-(2-azidoethyl)-2-methyl-5-nitro-1H-imidazole]: the “MIC C. difficile NAP1/027 ATCC BAA-1803 24 hr” value in test [1] (24 hr incubation) is recorded as 0.5 µg/mL (≈ 2.55 µM). The “MIC C. difficile NAP1/027 ATCC BAA-1803 48 hr” value in test [1] (48 hr incubation) was found to be 1 µg/mL (≈ 5.1 µM). For the same compound, the “MIC C. difficile NAP1/027 (footnote c)” value in test [1] (NAP1/027 (footnote c: ATCC 43255), MtzS, 24 h, median of at least n = 4) came to 0.5 µg/mL (≈ 2.55 µM).

The EC50 is the concentration giving half of the maximal effect. With `Cc1ncc([N+](=O)[O-])n1CCn1cc(-c2ccccc2)nn1` [Compound 4a, 1-(2-(2-methyl-5-nitro-1H-imidazol-1-yl)ethyl)-4-phenyl-1H-1,2,3-triazole], the MIC in test [1] (setting [5]), in test [1] (setting [6]) and in test [1] (setting [7]) was 0.5 µg/mL (≈ 1.68 µM) each time. Further, the results for the EC50 in test [2], in test [3] and in test [4] were 260 nM, 160 nM and 5300 nM, respectively.

Turning to `COc1ccc(-c2cn(CCn3c([N+](=O)[O-])cnc3C)nn2)cc1` [Compound 4b, 1-(2-(2-methyl-5-nitro-1H-imidazol-1-yl)ethyl)-4-(4-methoxyphenyl)-1H-1,2,3-triazole], the MIC in test [1] (setting [5]), in test [1] (setting [6]) and in test [1] (setting [7]) was 0.5 µg/mL (≈ 1.52 µM) each time.

For `Cc1ncc([N+](=O)[O-])n1CCn1cc(-c2ccc(Cl)cc2)nn1` [Compound 4c, 1-(2-(2-methyl-5-nitro-1H-imidazol-1-yl)ethyl)-4-(4-chlorophenyl)-1H-1,2,3-triazole], the MIC in test [1] (setting [5]) came to 0.25 µg/mL (≈ 0.751 µM); in test [1] (setting [6]) it was 0.25 µg/mL (≈ 0.751 µM); in test [1] (setting [7]) it was 0.5 µg/mL (≈ 1.5 µM).

For `Cc1ncc([N+](=O)[O-])n1CCn1cc(-c2ccc(Cl)c(Cl)c2)nn1` [Compound 4d, 1-(2-(2-methyl-5-nitro-1H-imidazol-1-yl)ethyl)-4-(3,4-dichlorophenyl)-1H-1,2,3-triazole], the MIC in test [1] (setting [5]) is 1 µg/mL (≈ 2.72 µM); in test [1] (setting [6]), 1 µg/mL (≈ 2.72 µM); in test [1] (setting [7]), 0.5 to 8 µg/mL (≈ 1.36 to 21.8 µM). In addition, the EC50 in test [2] was 1400 nM; in test [3], 310 nM; in test [4], 570 nM.

In the case of `Cc1ccc(-c2cn(CCn3c([N+](=O)[O-])cnc3C)nn2)cc1` [Compound 4e, 1-(2-(2-methyl-5-nitro-1H-imidazol-1-yl)ethyl)-4-(p-tolyl)-1H-1,2,3-triazole], the MIC in test [1] (setting [5]), in test [1] (setting [6]) and in test [1] (setting [7]) was 0.5 µg/mL (≈ 1.6 µM) each time. Further, the results for the EC50 in test [2], in test [3] and in test [4] were 2100 nM, 530 nM and 8100 nM, respectively.

Regarding `Cc1ncc([N+](=O)[O-])n1CCn1cc(-c2cncnc2)nn1` [Compound 4i, 1-(2-(2-methyl-5-nitro-1H-imidazol-1-yl)ethyl)-4-(5-pyrimidinyl)-1H-1,2,3-triazole], the MIC in test [1] (setting [5]) was 0.5 to 1 µg/mL (≈ 1.67 to 3.33 µM); in test [1] (setting [6]), 1 µg/mL (≈ 3.33 µM); in test [1] (setting [7]), 1 µg/mL (≈ 3.33 µM).

Take `Cc1ncc([N+](=O)[O-])n1CCn1cc(-c2ncccn2)nn1` [Compound 4j, 1-(2-(2-methyl-5-nitro-1H-imidazol-1-yl)ethyl)-4-(2-pyrimidinyl)-1H-1,2,3-triazole]: the MIC in test [1] (setting [5]), in test [1] (setting [6]) and in test [1] (setting [7]) was 2 µg/mL (≈ 6.66 µM) each time.

For the compound `Cc1ncc([N+](=O)[O-])n1CCn1cc(Cc2ccccc2)nn1` [Compound 4k, 1-(2-(2-methyl-5-nitro-1H-imidazol-1-yl)ethyl)-4-benzyl-1H-1,2,3-triazole], the MIC in test [1] (setting [5]), in test [1] (setting [6]) and in test [1] (setting [7]) was 0.5 µg/mL (≈ 1.6 µM) each time. Also, the EC50 in test [2] was 710 nM; in test [3], 390 nM; in test [4], 5200 nM.

Consider `Cc1ncc([N+](=O)[O-])n1CCn1cc(C(O)c2ccccc2)nn1` (stereo not drawn) [Compound 4l, 1-(2-(2-methyl-5-nitro-1H-imidazol-1-yl)ethyl)-4-(1-phenyl-1-hydroxylmethyl)-1H-1,2,3-triazole], for which the figures for the MIC in test [1] (setting [5]), in test [1] (setting [6]) and in test [1] (setting [7]) were 1 µg/mL (≈ 3.05 µM), 0.5 to 1 µg/mL (≈ 1.52 to 3.05 µM) and 1 µg/mL (≈ 3.05 µM), respectively.

With `Cc1ncc([N+](=O)[O-])n1CCn1cc(-c2ccsc2)nn1` [Compound 4n, 1-(2-(2-methyl-5-nitro-1H-imidazol-1-yl)ethyl)-4-(thiophen-3-yl)-1H-1,2,3-triazole], the MIC in test [1] (setting [5]), in test [1] (setting [6]) and in test [1] (setting [7]) was 0.5 µg/mL (≈ 1.64 µM) in each case. Besides, the EC50 in test [2] is 340 nM; in test [3], 230 nM; in test [4], 6900 nM.

As for `Cc1ncc([N+](=O)[O-])n1CCn1cc(CN2CCS(=O)(=O)CC2)nn1` [Compound 4o, 1-(2-(2-methyl-5-nitro-1H-imidazol-1-yl)ethyl)-4-((1,1-dioxothiomorpholin-4-yl)methyl)-1H-1,2,3-triazole], the MIC in test [1] (setting [5]), in test [1] (setting [6]) and in test [1] (setting [7]) was greater than 64 µg/mL each time.

For `Cc1ncc([N+](=O)[O-])n1CCn1cc(CCO)nn1` [Compound 4p, 1-(2-(2-methyl-5-nitro-1H-imidazol-1-yl)ethyl)-4-(2-hydroxyethyl)-1H-1,2,3-triazole], the MIC in test [1] (setting [5]) was 16 µg/mL (≈ 60.1 µM); in test [1] (setting [6]) it was 8 µg/mL (≈ 30 µM); in test [1] (setting [7]), 8 to 16 µg/mL (≈ 30 to 60.1 µM).

Regarding `Cc1ncc([N+](=O)[O-])n1CCn1cc(CO)nn1` [Compound 4q, 1-(2-(2-methyl-5-nitro-1H-imidazol-1-yl)ethyl)-4-(hydroxymethyl)-1H-1,2,3-triazole], the MIC in test [1] (setting [5]) was 16 to 32 µg/mL (≈ 63.4 to 127 µM); in test [1] (setting [6]), 16 µg/mL (≈ 63.4 µM); in test [1] (setting [7]), 16 to 32 µg/mL (≈ 63.4 to 127 µM).

Turning to `Cc1ncc([N+](=O)[O-])n1CCn1cc(CCC(=O)O)nn1` [Compound 4r, sodium 1-(2-(2-methyl-5-nitro-1H-imidazol-1-yl)ethyl)-4-(carboxyethyl)-1H-1,2,3-triazole], the MIC in test [1] (setting [5]), in test [1] (setting [6]) and in test [1] (setting [7]) was greater than 64 µg/mL in each case.

Take `Cc1ncc([N+](=O)[O-])n1CCn1cc(CN)nn1.O=C(O)C(F)(F)F` [Compound 4t, 1-(2-(2-methyl-5-nitro-1H-imidazol-1-yl)ethyl)-4-(aminomethyl)-1H-1,2,3-triazole trifluoroacetate salt]: the MIC in test [1] (setting [5]), in test [1] (setting [6]) and in test [1] (setting [7]) was greater than 64 µg/mL in each case.
